For one data set, the system named is JAK kinases. The note with it: range over JAK kinases; read-out: IC50, inhibition of JAK kinases; cited from earlier work.
The subject of data set [1] is erythropoietin, granulocyte/macrophage colony-stimulating factor, IL-12, IL-23. The note with it: GM-CSF, read-out: IC50's, cytokines that do not activate the JAK1 enzyme in cells; cited from earlier work.
In data set [2] the test system is canine DH82 macrophage cell line. The experiment in a line: Cytokine assay in DH82 macrophage cultures (Example 26). It counts as cell-based.
In data set [3] the test system is murine CD4+ and CD8+ T cells. The note with it: not IFN-γ-producing cells; cited from earlier work.
For data set [4], the system named is Primary canine dermal fibroblasts. The experiment in a line: Cytokine assay in primary dermal fibroblast cultures (Example 26). The format is cell-based.
The test system of data set [5] is JAK1-dependent cytokines involved in allergy and inflammation (IL-2, IL-4, IL-6, and IL-13) as well as pruritus (IL-31). The conditions noted are these: published data; cited from earlier work.
The next data set has as its system T cell proliferation. The note with it: published data; cited from earlier work.
Data set [6] deals with Natural Killer (NK) cells and monocytes. The experiment in a line: Immune cell activation in PBMC cultures (CD69, CD25; Example 13). It counts as cell-based, human. The method, then:
Immune cell activation. Peripheral venous blood was drawn from healthy human donors upon written informed consent, as approval by the Sky Lakes Medical Center Institutional Review Board, Federalwide Assurance 2603. The blood was drawn into heparin vacutainer vials, and the peripheral blood mononuclear cells (PBMC) were isolated using Lympholyte Poly by centrifugation for 35 min at 400×g. The PBMC were washed twice in PBS and counted, and the density was adjusted to establish 0.18 mL cultures with a cell density at 106/mL, using Roswell Park Memorial Institute 1640 medium containing 10% fetal calf serum and 1% penicillin-streptomycin.
Cultures were then incubated at 37° C., 5% CO2 for 24 h. The highly inflammatory LPS from Escherichia coli was used as a positive control for immune-cell activation. In parallel, IL-2 was used as a positive control for natural killer (NK)-cell activation, at a concentration of 100 IU/mL in cell culture. Untreated negative control cultures consisted of PBMC exposed to phosphate-buffered saline in the absence of test products. […] The fluorescence intensities for CD3, CD25, CD56, and CD69 were measured by flow cytometry, using an Attune NxT acoustic-focusing flow cytometer (Thermo Fisher Scientific, Waltham, MA, USA). […] The lymphocyte subpopulation was further analyzed for CD25 and CD69 expression on CD3−CD56+ NK cells, CD3+ CD56+ NKT cells, and CD3+CD56− T cells.

For data set [7], the system named is K562 human myelogenous leukemia target cells. The experiment in a line: Cytotoxicity towards K562 target cells (CD107a; Example 13). It counts as cell-based. The note with it: PBMC co-cultured with K562. From the text: Natural killer (NK) cell cytotoxicity towards K562 human myelogenous leukemia target cells. The cell surface expression of CD107a (LAMP-1) is a marker for secretory degranulation of NK and activated cytotoxic T cells when they are co-cultured with malignant or virus-infected target cells. Peripheral blood mononuclear cells from healthy human donors were co-cultured with K562 cells in the absence versus presence of test products or matching concentrations of the DMSO solvent control. All treatments, including each concentration of test product and each positive and negative control, were tested in triplicate. CD107a-FITC antibody (6.5 μL/well) was added at the beginning of each culture, along with the protein transport inhibitor BD GolgiStop™, which contains Monensin and blocks intracellular protein transport processes. After 4 h of incubation at 37° C., 5% CO2, the cells were washed in phosphate-buffered saline and stained with CD3-PerCP and CD56-PE antibodies and then fixed in formalin. Flow cytometry analysis was performed where the strategy involved initial gating of the lymphocyte and monocyte subpopulations using the forward/side scatter plot, followed by analysis of T cells and NK cells in the lymphocyte population. The fluorescence intensity of CD107a was evaluated as the mean fluorescence intensity on monocytes, NK cells, and T cells.

Data set [8] relates to dogs suffering from pruritus or atopic dermatitis. The experiment in a line: Treatment of pruritus / atopic dermatitis in dogs (Examples 14, 15, 28). It counts as in vivo, dog. The note with it: oral, 1-2 times daily, 2-6 or 3-5 microg oleandrin/Kg. The protocol:
A dog presenting with pruritus was administered the aqueous liquid composition of Example 2. It contained 0.1-5 μg OLE/mL. The composition (0.25-1 mL) was administered (1-4 times daily) directly to the dog's mouth, thereby resulting in a combination of buccal and sublingual administration. […] Both inflammation and itchiness were relieved.
A dog presenting with pruritus was administered the MCT-based composition of Example 21. It contained 12-25 μg OLE/mL. A few drops of the composition (0.25-1 mL) is administered (1-4 times daily) directly to the dog's mouth, thereby resulting in a combination of buccal and sublingual administration. […] Both inflammation and itchiness were relieved.
A dog presenting with pruritus was administered the aqueous liquid composition of Example 11. The composition was sprayed (1-4 pumps) directly onto the itchy area of the dog and rubbed into the skin and fur/hair. […] Both inflammation and itchiness were relieved.
Oleandrin (oleander extract) was orally administered in two different forms. The oil-based formulation of Example 21 was sprayed onto dog treats and administered between meals or sprayed onto dog food and administered as part of a meal. The chews of Example 27 were orally administered between meals. Both products were administered 1-2 times daily at doses ranging from 2-6 (preferably 3-5) microg oleandrin/Kg of bodyweight. […]

The subject of data set [9] is human peripheral blood mononuclear cells. The experiment in a line: Cytokine, chemokine and growth factor production in human PBMC cultures (Example 13). The format is cell-based. The source says:
Proof of the antipruritic activity of oleandrin was established in vitro according to Example 13 by measuring its effect upon on the expression of key cytokines, chemokines, and other factors that are part of the innate immune system. An in vitro model of human peripheral blood mononuclear cells was used to determine effects the effects of OCC under different culture conditions: normal (no inflammation) and inflamed by lipopolysaccharide (LPS).
Reagents. Dulbecco's phosphate-buffered saline (Gibco cat. #141190-136), lipopolysaccharide (LPS) (Invitrogen cat. #00-4976-93), Roswell Park Memorial Institute 1640 cell culture medium (Gibco cat. #11835-030), Fetal Bovine Serum (Gibco cat. #A38401-01), penicillin-streptomycin 100× (Gibco cat. #15140-122), CD69 fluorescein isothiocyanate (clone FN50, Invitrogen cat. #11-0699-42), CD56 phycoerythrin (clone CMSSB Invitrogen cat. #12-0567-42), and CD3 Super Bright 645 (clone OKT3 Invitrogen cat. #64-0037-42) were purchased from Thermo Fisher Scientific (Waltham, MA, USA). CD25 Brilliant Violet 421 (clone 2A3 BD cat. #564033) and sodium heparin Vacutainer tubes (BD cat. #367878) were purchased from Becton-Dickinson (Franklin Lakes, NJ, USA). The human erythroleukemia cell line K562 was purchased from American Type Culture Collection (Manassas, VA, USA). Customized Bio-Plex Pro™ human cytokine arrays were purchased from Bio-Rad Laboratories Inc. (Hercules, CA, USA). […]
The two products were handled in the following manner: (1) A stock solution of PBI was prepared in DMSO, and subsequent dilutions were prepared in phosphate-buffered saline. […] The range of concentrations in cell cultures was calculated based on the % oleandrin and ranged from 0.5 to 500 ng oleandrin/mL cell culture medium. […]
Immune cell activation. […] The PBMC were washed twice in PBS and counted, and the density was adjusted to establish 0.18 mL cultures with a cell density at 106/mL, using Roswell Park Memorial Institute 1640 medium containing 10% fetal calf serum and 1% penicillin-streptomycin. […]

Data set [10] concerns BT (Bos taurus turbinate), MDBK (Bos taurus kidney) and MARC 145 (monkey kidney) cells. The experiment in a line: Lactate dehydrogenase release assay (LDH assay), Example 18. The format is cell-based. The conditions noted are these: up to concentrations of 1 microg/mL. The protocol: Oleandrin (PhytoLab, Vestenbergsgreuth, Germany) was dissolved at a concentration of 1 mg/ml in DMSO. The desired concentration range to be used in cytotoxicity testing is 0.005-1 ug/ml in 0.0005-0.1% wt in DMSO, respectively. Lactate dehydrogenase release assay (LDH assay) was be used to determine the cytotoxic effect of different concentration of Oleandrin on different cell cultures. LDH is a cytosolic enzyme that is released only from damaged cells (due to increased membrane permeability) to the outside medium that will convert the lactate in the medium into pyruvate in a coupled reaction that includes the reduction of NAD+ into NADH, the latter is oxidized back to NAD+ in the presence of Diaphorase in the LDH kit mix that leads to the reduction of water soluble tetrazolium (INT), that is also in the kit mix, into red Formazon product that can be read by an ELISA reader at a wave length of 490 nm. […]
This was achieved by preparing different concentration of cells in 100 μl volume staring at 1000 cell/100 μl to 20,000 cell/100 μl in a 2-fold serial dilution manner. […] After performing the test according to the manufacturer instructions, the average OD value reading of the triplicate for each dilution in each set was taken and plotted against number of cells. […] Absorbance is measured at 490 nm and 680 nm using Spectramax i3x. […]

In general, IC50 refers to the concentration that inhibits the measured activity by half. Regarding `CNS(=O)(=O)C[C@H]1CC[C@H](N(C)c2ncnc3[nH]ccc23)CC1` [oclacitinib], the half-maximal inhibitory concentration (IC50) is 10 to 99 nM in the data set on JAK kinases and > 1000 nM in data set [1]. Also, the “IL-6, IFN-γ, and NGF-β” value in data set [2] (cytokines involved in dermal inflammation) is reported as “increases”. Also, the “TGF-β1, IL12/IL-23p40, and TNF-α” value in data set [2] (less robust than the reductions triggered by OE and oleandrin) is “reductions”. For the same compound, in data set [3], the “frequency of IL-4- and IL-10-producing murine CD4+ and CD8+ T cells” value was “reduces”. Moreover, the “levels of IL-8 and MCP-1” value in data set [4] is recorded as “little or no effect”. Further, the “concentrations at which anti-inflammatory properties have been reported” value in data set [5] was 36 to 249 nM. In the data set with T cell proliferation, the “concentration at which inhibition of T cell proliferation was seen” value was 10 µM.
Consider `CO[C@H]1C[C@H](O[C@H]2CC[C@@]3(C)[C@H](CC[C@@H]4[C@@H]3CC[C@]3(C)[C@@H](C5=CC(=O)OC5)[C@@H](OC(C)=O)C[C@]43O)C2)O[C@@H](C)[C@@H]1O` [oleandrin], for which, in data set [6], the “activation of Natural Killer (NK) cells and monocytes” value is reported as “directly activated”. For the same compound, the “IL-6, IL-12/IL-23p40, IFN-γ, TNF-α, VEGF, and NGF-β” value in data set [2] (DH82 macrophage cultures, inflamed conditions (LPS), 24 hours) was “reductions”. Besides, the “levels of IL-8 and MCP-1” value in data set [4] is given as “reduced”. Further, the “T cell cytotoxic attack on malignant target cells” value in [7] is reported as “increased”. Further, in data set [8], the “time until improvements became evident” value was 1 to 3 days. Also, the itching and scratching result in data set [8] (as included in an oleander extract) was “significant reduction in itching and scratching”. The production of cytokines entry in data set [9] is on record as “increased”. Moreover, in [9] (0.5 to 500 ng oleandrin/mL), the “expression of IFN-γ, G-CSF, and IL-6” value was “induced”; the “formation/expression of IL-21, IL-22, IL-23, IL-25, IL-31, IL-33, and TNF-α” value was “suppressed”. For the same compound, the “toxicity, release of lactate dehydrogenase” value in data set [10] is listed as “no additional toxicity over control vehicle”.

The record behind these values is patent publication US20260199384A1, “METHOD AND COMPOSITIONS FOR TREATING SKIN DISORDERS” (PHOENIX ANIMAL WELLNESS, INC., priority 2023, published 2026).
